Experimental data: patent publication US8916164B2, “Methods of enhancing adjuvaticity of vaccine compositions” (ABIVAX, priority 2007, dated 2014)
Entries after “also recorded” stand apart in the source; their conditions may differ.

How the values were obtained:
NKT cells [1] = test: Expansion of NKT cells in culture of peripheral blood lymphocytes (PBL), flow cytometry on day 7; format: cell-based, human; settings: for percentage of NKT cells in the CD3+ population: PBL of two healthy donors, 10 ng/ml, 100 ng/ml or 1 μg/ml, rhIL-2, day 7 (FIG. 1)
Description: PBLs were derived from two healthy donors and grown in RPMI cell culture media with 5% AB serum. Cells were plated on 12-well plates at 2×10^6 PBL/well/2 ml. Wells were treated with negative controls (0.05% Tween20 and 1% DMSO in PBS or 0.05% Tween20 and 10% DMSO in PBS) or the test adjuvants (αGalCer, PBS-20, PBS-25, or PBS-57) at a final concentration of 10 ng/ml, 100 ng/ml or 1 μg/ml. The chemical structures for control compounds αGalCer, PBS-20 and PBS25 are shown below:
All cultures were supplemented with recombinant human IL2 (rhIL-2) to obtain final concentration of 100 UI/ml by day 1. All cells were cultured for 10 days at 37° C. under 5% CO2. On day 7, half the culture medium (1 ml) was removed for NKT analysis. Percentage of NKT cells in the CD3+ population was detected by flow cytometry using fluorescently labeled CD1 tetramers or fluorescently labeled antibodies (anti-CD3, anti-Vβ11, and anti NKT). The NKT population was identified by flow cytometry as the Vβ11+, Tetramer+ and TCRαβ+ population. NKT cell percentage was calculated in each sample by subtracting the Vβ11+ PBS -57-tetramer+ TCRαβ+ from the Vβ11+ empty-tetramer+TCRαβ+.
Peripheral blood lymphocytes were derived from two healthy donors and cultured in RPMI with 5% AB serum. Cells are plated in a 12-well plate with 2×10^6 cells per well per 2 ml media. One well received carrier (0.05% Tween20 and 1% DMSO in PBS) as a negative control, and test wells received αGalCer, PBS-25, PBS-57, or PBS-83 at final concentrations of 1 ng/ml, 10 ng/ml and 100 ng/ml. The structure of PBS-83 is shown below:
All cultures were supplemented with rhIL-2 to obtain a final concentration of 100 UI/ml by day 1, and cultured for 7 days at 37° C. under 5% CO2 conditions. At day 7, the percentage NKT cells was detected by flow cytometry.

NKT cells [2] = test: Increase in NKT cells (day 7 / day 0) in PBL/PBMC cultures from healthy donors; format: cell-based; settings: PBL cultures from human volunteers (FIG. 3)
Description: NKT staining was performed on a panel of fourteen healthy donor peripheral blood lymphocytes (PBL) or peripheral blood […] (PBMC) samples. PBLs were isolated from 12 subjects, and PBMCs were isolated from 2 subjects. Each isolated cell sample was split into two samples. The first sample from each donor was stained with 10 μl anti-Vβ11 FITC (Beckman Coulter), 10 μl anti-TCRαβ-PC5 (Beckman Coulter), and 2 μl PE-labeled PBS-57-CD1d-tetramer. The second sample from each donor was stained with 10 μl Vβ11, 10 μl anti-TCRαβ-FITC, and 2 μl PE-labeled empty-CD1d-tetramer.
To determine a percentage increase in NKT cells, the number of NKT cells on day 7 was divided by the number of NKT cells on day 0.

[3] = tested on: TCRαβ cells and NKT cells in the spleen; test: TCRαβ and NKT cell populations in the spleen of mice 24 hours after intravenous administration; format: in vivo, C57B1/6J mice; settings: 0.97 μg αGalCer or 1.3 μg PBS57, 24 hours; for percentage of TCRαβ cells in the spleen: compared with PBS and carrier control (FIG. 4A); for percentage of NKT cells within the TCRαβ population in the spleen: relative to control (FIG. 4B)
Description: (§1) To test for adjuvant activity of PBS57 in vivo, mice were injected with test compounds and assayed for cell activation and expansion at 24 hours. Four groups of five C57B1/6J mice were each intravenously administered phosphate buffered saline (PBS) with carrier (DMSO alone), 0.97 μg of αGalCer, 1.3 μg of PBS57, or 0.97 μg of PBS83 in a total of 100 μl PBS. 24 hours after administration of the test compound, the mice were sacrificed and blood samples and splenocytes were isolated by standard methods. Percentage of NKT cells in the spleen was evaluated by flow cytometry with staining using anti-TCRαβ-FITC and PE-labeled CD1d-tetramer loaded with PBS-57 (PBS57-tetramer) or without lipid (empty-tetramer). […] The percentage of NKT cells was determined by subtracting the percentage of PBS57-tetramer+ cells from the percentage of empty-tetramer+ cells in the TCRαβ population.

[4] = tested on: CD11c+CD8α− and CD11c+CD8α+ dendritic cells; test: Dendritic cell subsets and maturation (CD40, CD80, CD86) in splenocytes of mice 24 hours after intravenous administration; format: in vivo, C57B1/6J mice; settings: for decrease of both subsets of DCs (CD11c+CD8α− and CD11c+CD8α+) compared to the control: splenocytes; for percentage of CD40+, CD80+ and CD86+ expressing cells in both the CD11c+CD8α− and CD11c+CD8α+ populations: splenocytes (FIGS. 5A-5F)
Description: as §1
Dendritic cells (DCs) were detected in the splenocytes by flow cytometry by staining with anti-CD11c R-PE (BD Pharmingen) and anti-CD8α FITC (Beckman Coulter). Two subsets of dendritic cells, CD11c+CD8α− and CD11c+CD8α+ populations, were analyzed further. […] To determine if administration of glycolipid induced maturation of the two subsets of dendritic cells, the cells were stained with anti-CD40 Biotin/Stepta APC (BD Bioscience), anti-CD80 Biotin (BD Pharmingen)/Stepta APC (BD Bioscience) and anti-CD86 Biotin (BD Pharmingen)/Stepta APC (BD Bioscience) antibodies and analyzed by flow cytometry. FIGS. 5A and 5B show the percentage of CD40 positive cells in both the CD11c+CD8α− and CD11c+CD8α+ cells, respectively. […] Horizontal lines represent the averages.

[5] = tested on: Ova-specific target cells; test: In vivo specific cytotoxic T cell (CD8+) response: specific lysis of CFSE-labeled SIINFEKL-loaded target cells in immunized mice; set-up: species or system C57/B1/6J CD45.2 female mice; settings: for specific lysis of Ova-specific target cells in the blood, IM versus IV: 400 μg Ova and 1 μg adjuvant in 50 μl PBS, IM or IV, readout day 11 (FIG. 13); for specific lysis of Ova-specific target cells in the blood, intramuscular immunization: IM hind left leg, 400 μg Ova with 1 μg to 10 pg adjuvant, readout day 11 (FIG. 11, FIG. 12); for specific lysis of Ova-specific target cells in the blood, intravenous immunization: 50 μg Ova with varying doses of adjuvant, readout day 11 (FIG. 8, FIG. 9)
tetanus toxoid = test: Antibody (IgG) response to tetanus toxoid immunization, tetanus toxoid specific ELISA; format: in vivo; settings: mice, IM day 0 and day 15, 10 μg TT with 1 μg PBS57 versus TT alone, blood day 0, 15 and 30 (FIG. 14)
Description: IgG titers were determined by standard methods from blood samples drawn on day 0, 15 and 30. The antibody titer was determined by tetanus toxoid specific ELISA.

[6] = tested on: Ova-specific CD8+ T cells; test: H2Kb-SIINFEKL pentamer staining of CD8+ T cells in blood after immunization with Ova; format: in vivo, C57/B1/6J CD45.2 female mice
Description: A mouse model was used to test the in vivo specific T cell response (CD8+) elicited by PBS57 in combination with antigen. C57/B1/6J CD45.2 female mice were immunized intramuscularly on day 0 and 14 with antigen (Ovalbumin, Ova, grade VII, Sigma, St. Louis, Mo.) with or without adjuvant, adjuvant alone, or carrier alone (control) in a total of 100 μl PBS carrier. Test adjuvant was 1 μg PBS57 with or without 50 μg Ova. Each group included at least three mice. Blood was collected from each mouse at day 21 and isolated cells were subjected to pentamer staining with H2K^b-SIINFEKL pentamers after blocking the Fc receptor. FACS analysis was performed including only CD8+ cells in the analysis (CD19+ cells were excluded from the analysis to exclude any B cells). […] The results are reported as mean+/−standard deviation of H2K^b-SIINFEKL specific CD8+ T cells in the blood.
A mouse model was used to test the in vivo specific T cell response (CD8+) elicited by PBS57 in combination with antigen as compared to that of αGalCer. C57/B1/6J CD45.2 female mice were immunized subcutaneously on day 0 and 14 with antigen (Ovalbumin, Ova, grade VII, Sigma, St. Louis, Mo.) with or without adjuvant, adjuvant alone, or carrier alone (control) in a total of 100 μl PBS carrier. Test adjuvant was 1 μg PBS57 or αGalCer with or without 50 μg Ova. Each group included at least three mice. […]

INF-γ and IL-4 = settings: in vitro; cited from earlier work

SMILES: CCCCCCCCC=CCCCCCCCCCCCCCC(=O)N[C@@H](OC1OC(CNC(C)=O)C(O)C(O)C1O)C(O)[C@H](O)CCCCCCCCCCCCCC (stereo partly drawn) [PBS57]
- percentage of NKT cells in the CD3+ population (NKT cells [1]): expansion of NKT cells
- increase in NKT cells over cells treated with αGalCer (NKT cells [1]; separate experiment, PBL of two healthy donors, 1, 10 and 100 ng/ml, day 7 (FIG. 2)): at least a two fold increase
- increase in NKT cells (number on day 7 divided by number on day 0) (NKT cells [2]): substantial increase in NKT cells
- percentage of TCRαβ cells in the spleen [3]: increase in percentage of TCRαβ cells
- percentage of NKT cells within the TCRαβ population in the spleen [3]: decrease in percentage of NKT cells
- decrease of both subsets of DCs (CD11c+CD8α− and CD11c+CD8α+) compared to the control [4]: 50%
- percentage of CD40+, CD80+ and CD86+ expressing cells in both the CD11c+CD8α− and CD11c+CD8α+ populations [4]: substantially increased
- specific lysis of Ova-specific target cells in the spleen ([5]; 1 μg adjuvant with 50 μg Ova on day 0, target cells day 10, readout day 11 (FIG. 7)): produced cytotoxic lysis of Ova-specific target cells
- specific lysis of Ova-specific target cells in the blood, IM versus IV [5]: caused a cytotoxic response regardless of the route of administration
- specific lysis of Ova-specific target cells in the blood, intramuscular immunization [5]: can elicit a specific cytotoxic response when injected both intravenously and intramuscularly
- specific lysis of Ova-specific target cells, varying Ova dose ([5]; IV, 1 μg PBS57 with 50 μg to 10 pg Ova, readout day 11 (FIG. 10)): dependent on antigen concentration
- specific lysis of Ova-specific target cells in the blood, intravenous immunization ([5]; IV): dose-dependent specific cytotoxic effect
- antibody (IgG) titer to tetanus toxoid (tetanus toxoid): enhanced the antibody response to TT
- H2Kb-SIINFEKL specific CD8+ T cells in the blood, intramuscular immunization ([6]; IM day 0 and 14, 1 μg PBS57 with 50 μg Ova, compared to Ova alone, blood day 21 (FIG. 15)): increase in Ova-specific CD8+ T cells
- H2Kb-SIINFEKL specific CD8+ T cells in the blood, subcutaneous immunization ([6]; SC day 0 and 14, 1 μg PBS57 with 50 μg Ova, compared to Ova alone or αGalCer and Ova, blood day 21 (FIG. 16)): increase in Ova-specific CD8+ T cells
- release of INF-γ and IL-4 (INF-γ and IL-4): induce the release of the INF-γ and IL-4

SMILES: CCCCCCCCCCCCCCCCCCCCCCCCCC(=O)N[C@@H](COC1OC(CO)C(O)C(O)C1O)[C@H](O)[C@H](O)CCCCCCCCCCCCCC (stereo partly drawn) [αGalCer, α-galactosyceramide, reference compound]
- percentage of NKT cells in the CD3+ population (NKT cells [1]): expansion of NKT cells
- percentage of TCRαβ cells in the spleen [3]: increase in percentage of TCRαβ cells
- percentage of NKT cells within the TCRαβ population in the spleen [3]: decrease in percentage of NKT cells
- decrease of both subsets of DCs (CD11c+CD8α− and CD11c+CD8α+) compared to the control [4]: 50%
- percentage of CD40+, CD80+ and CD86+ expressing cells in both the CD11c+CD8α− and CD11c+CD8α+ populations [4]: substantially increased
- specific lysis of Ova-specific target cells in the blood, IM versus IV [5]: did not induce a cytotoxic response when injected intramuscularly
- specific lysis of Ova-specific target cells in the blood, intramuscular immunization [5]: not able to generate a specific cytotoxic T cell response; also recorded: can only elicit a cytotoxic response when injected intravenously
- specific lysis of Ova-specific target cells in the blood, intravenous immunization ([5]; IV): dose dependent specific cytotoxic effect; also recorded: elicited a cytotoxic response when injected intravenously at 1 μg-10 ng
